Assay results: patent US10239873B2, “7-azaindole or 4,7-diazaindole derivatives as IKKϵ epsilon and TBK1 inhibitor and pharmaceutical composition comprising same” (GREEN CROSS CORPORATION, priority 2015, dated 2019)

Molecular target: T1, TBK1 (Homo sapiens, UniProt Q9UHD2)
T1 construct: purchased Promega (Invitrogen is also named in the same bracket) V4158; PR8031B; V3991 (not assigned to the two kinases)
T1 sequence (Q9UHD2 1-729): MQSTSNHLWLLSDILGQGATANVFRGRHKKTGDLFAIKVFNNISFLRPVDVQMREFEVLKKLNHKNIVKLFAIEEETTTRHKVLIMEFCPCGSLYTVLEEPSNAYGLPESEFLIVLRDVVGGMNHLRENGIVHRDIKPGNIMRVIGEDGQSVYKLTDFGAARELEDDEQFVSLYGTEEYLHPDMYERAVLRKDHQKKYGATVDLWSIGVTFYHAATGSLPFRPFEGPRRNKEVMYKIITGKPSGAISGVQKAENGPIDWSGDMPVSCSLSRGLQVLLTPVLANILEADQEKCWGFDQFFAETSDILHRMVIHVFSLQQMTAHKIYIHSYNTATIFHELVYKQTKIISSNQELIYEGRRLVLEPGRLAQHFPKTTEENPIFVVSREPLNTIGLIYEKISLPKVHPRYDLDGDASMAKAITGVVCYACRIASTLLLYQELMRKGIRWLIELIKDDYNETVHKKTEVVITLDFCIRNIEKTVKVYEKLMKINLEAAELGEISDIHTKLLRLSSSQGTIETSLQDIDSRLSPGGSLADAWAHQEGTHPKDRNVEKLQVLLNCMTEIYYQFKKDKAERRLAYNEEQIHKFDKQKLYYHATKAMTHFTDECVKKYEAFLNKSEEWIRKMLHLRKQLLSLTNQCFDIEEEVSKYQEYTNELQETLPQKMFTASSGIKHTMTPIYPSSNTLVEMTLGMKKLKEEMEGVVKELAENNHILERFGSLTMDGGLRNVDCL
Assay: ADP-Glo Kinase Assay, inhibition activity on TBK1
Assay type: biochemical
Protocol: Inhibition activities on IKKϵ and TBK1 were evaluated using the compounds of Examples 1 to 250.
The inhibition activities on IKKϵ and TBK1 were measured by a luminometer, IKKϵ/TBK1 Kinase Enzyme System (Promega, Ca# V4158; Invitrogen, PR8031B, Promega, Ca# V3991) and ADP-Glo Kinase Assay using ADP-Glo™ Kinase Analysis Kit (Promega, Ca# V9101) and a kinase reaction buffer [40 mM Tris(pH 7.5), 20 mM MgCl2, 0.1 mg/mL BSA] in accordance with the manufacturer's protocol.

Structure (SMILES)	IC50
O=C(NC1CCCC1)N1CC=C(c2c[nH]c3ncc(-c4cc(Cl)cc(C(=O)N5CCOCC5)c4)cc23)CC1 [Example 77, 4-(5-(3-Chloro-5-(morpholine-4-carbonyl)phenyl)-1H-pyrrolo[2,3-b]pyridin-3-yl)-N-cyclopentyl-3,6-dihydropyridine-1(2H)-carboxamide 2,2,2-trifluoroacetate]	250 nM
CNS(=O)(=O)c1ccc(-c2cnc3[nH]cc(C4=CCN(C(=O)c5cccs5)CC4)c3c2)cc1 [Example 200, N-methyl-4-(3-(1-(thiophene-2-carbonyl)-1,2,3,6-tetrahydropyridin-4-yl)-1H-pyrrolo[2,3-b]pyridin-5-yl)benzensulfonamide]	45 nM
CC(=O)c1ccc(-c2cnc3[nH]cc(C4=CCN(C(=O)OC(C)(C)C)CC4)c3c2)cc1 [Example 166, tert-Butyl 4-(5-(4-acetylphenyl)-1H-pyrrolo[2,3-b]pyridin-3-yl)-5,6-dihydropyridine-1(2H)-carboxylate]	950 nM
COc1ccc(-c2cnc3[nH]cc(C4=C(C)CN(C(=O)NC5CCCC5)CC4)c3c2)cc1OC [Example 129, N-cyclopentyl-4-(5-(3,4-dimethoxyphenyl)-1H-pyrrolo[2,3-b]pyridin-3-yl)-3-methyl-5,6-dihydropyridine-1(2H)-carboxamide]	240 nM
CC(C)(C)OC(=O)N1CC=C(c2c[nH]c3ncc(-c4ccc(CN5CCOCC5)cc4)cc23)CC1 [Example 154, tert-Butyl 4-(5-(4-(morpholinomethyl)phenyl)-1H-pyrrolo[2,3-b]pyridin-3-yl)-5,6-dihydropyridine-1(2H)-carboxylate]	320 nM
CCCCCOC(=O)N1CC=C(c2c[nH]c3ncccc23)CC1 [Example 136, Pentyl 4-(1H-pyrrolo[2,3-b]pyridin-3-yl)-5,6-dihydropyridine-1(2H)-carboxylate]	10600 nM
O=C(OC1CCCC1)N1CC=C(c2c[nH]c3ncc(-c4ccc(C(=O)N5CCOCC5)cc4)cc23)CC1 [Example 183, Cyclopentyl 4-(5-(4-(morpholine-4-carbonyl)phenyl)-1H-pyrrolo[2,3-b]pyridin-3-yl)-5,6-dihydropyridine-1(2H)-carboxylate]	39 nM
O=C(NC1CCCC1)N1CC=C(c2c[nH]c3ncc(-c4ccc(C(=O)N5CCOCC5)cc4)cc23)CC1 [Example 75, N-cyclopentyl-4-(5-(4-(morpholine-4-carbonyl)phenyl)-1H-pyrrolo[2,3-b]pyridin-3-yl)-5,6-dihydropyridine-1(2H)-carboxamide]	25 nM
COc1ccc(-c2cnc3[nH]cc(C4=CCCN(C(=O)OC(C)(C)C)CC4)c3c2)cc1OC [Example 187, tert-Butyl 4-(5-(3,4-dimethoxyphenyl)-1H-pyrrolo[2,3-b]pyridin-3-yl)-2,3,6,7-tetrahydro-1H-azepine-1-carboxylate]	3300 nM
CNS(=O)(=O)c1cccc(-c2cnc3[nH]cc(C4=CCN(C(=O)OC(C)(C)C)CC4)c3c2)c1 [Example 163, tert-Butyl 4-(5-(3-(N-methylsulfamoyl)phenyl)-1H-pyrrolo[2,3-b]pyridin-3-yl)-5,6-dihydropyridine-1(2H)-carboxylate]	59 nM
O=C(NC1CCCC1)N1CC=C(c2c[nH]c3ncc(-c4ccc(CCN5CCOCC5)cc4)cc23)CC1 [Example 64, N-cyclopentyl-4-(5-(4-(2-morpholinoethyl)phenyl)-1H-pyrrolo[2,3-b]pyridin-3-yl)-5,6-dihydropyridine-1(2H)-carboxamide]	110 nM
COc1ccc(-c2cnc3[nH]cc(C4=C(F)CN(C(=O)NC5CCCC5)CC4)c3c2)cc1OC [Example 133, N-cyclopentyl-4-(5-(3,4-dimethoxyphenyl)-1H-pyrrolo[2,3-b]pyridin-3-yl)-3-fluoro-5,6-dihydropyridine-1(2H)-carboxamide]	220 nM
O=C(NC1CCCC1)N1CC=C(c2c[nH]c3ncc(-c4ccc(OCCCN5CCOCC5)cc4)cc23)CC1 [Example 70, N-cyclopentyl-4-(5-(4-(3-morpholinopropoxy)phenyl)-1H-pyrrolo[2,3-b]pyridin-3-yl)-5,6-dihydropyridine-1(2H)-carboxamide]	400 nM
O=C(c1cccs1)N1CC=C(c2c[nH]c3ncc(-c4cccc(S(=O)(=O)N5CCOCC5)c4)cc23)CC1 [Example 202, (4-(5-(3-(morpholinosulfonyl)phenyl)-1H-pyrrolo[2,3-b]pyridin-3-yl)-5,6-dihydropyridin-1(2H)-yl)(thiophen-2-yl)methanone]	230 nM
Nc1nc2[nH]cc(C3=CCN(C(=O)NC4CCCC4)CC3)c2cc1-c1ccc(CN2CCOCC2)s1 [Example 227, 4-(6-amino-5-(5-(morpholinomethyl)thiophen-2-yl)-1H-pyrrolo[2,3-b]pyridin-3-yl)-N-cyclopentyl-5,6-dihydropyridine-1(2H)-carboxamide]	1500 nM
O=C(NC1CCCC1)N1CC=C(c2c[nH]c3ncc(-c4ccc(S(=O)(=O)N5CCOCC5)cc4)cc23)CC1 [Example 61, N-cyclopentyl-4-(5-(4-(morpholinosulfonyl)phenyl)-1H-pyrrolo[2,3-b]pyridin-3-yl)-5,6-dihydropyridine-1(2H)-carboxamide]	86 nM
CS(=O)(=O)c1cccc(-c2cnc3[nH]cc(C4=CCN(C(=O)OC5CCCC5)CC4)c3c2)c1 [Example 172, Cyclopentyl 4-(5-(3-(methylsulfonyl)phenyl)-1H-pyrrolo[2,3-b]pyridin-3-yl)-5,6-dihydropyridine-1(2H)-carboxylate]	55 nM
CCCCOC(=O)N1CC=C(c2c[nH]c3ncccc23)CC1 [Example 138, Butyl 4-(1H-pyrrolo[2,3-b]pyridin-3-yl)-5,6-dihydropyridine-1(2H)-carboxylate]	5200 nM
CC1CN(C(=O)c2cccs2)CC=C1c1c[nH]c2ncc(-c3ccc(CN4CCOCC4)s3)cc12 (stereo not shown) [Example 216, (5-methyl-4-(5-(5-(morpholinomethyl)thiophen-2-yl)-1H-pyrrolo[2,3-b]pyridin-3-yl)-5,6-dihydropyridin-1(2H)-yl)(thiophen-2-yl)methanone]	73 nM
O=C(NC1CCOC1)N1CC=C(c2c[nH]c3ncc(-c4ccc(CN5CCOCC5)s4)cc23)CC1 (stereo not shown) [Example 84, 4-(5-(5-(Morpholinomethyl)thiophen-2-yl)-1H-pyrrolo[2,3-b]pyridin-3-yl)-N-(tetrahydrofuran-3-yl)-5,6-dihydropyridine-1(2H)-carboxamide]	16 nM
COc1ccc(-c2cnc3[nH]cc(C4=CCN(C(=O)OC(C)(C)C)CC4)c3c2)cn1 [Example 161, tert-Butyl 4-(5-(6-methoxypyridin-3-yl)-1H-pyrrolo[2,3-b]pyridin-3-yl)-5,6-dihydropyridine-1(2H)-carboxylate]	600 nM
O=C(NC1CCCC1)N1CC=C(c2c[nH]c3ncc(-c4ccc(C(=O)N5CCOCC5)s4)cc23)CC1 [Example 74, N-cyclopentyl-4-(5-(5-(morpholine-4-carbonyl)thiophen-2-yl)-1H-pyrrolo[2,3-b]pyridin-3-yl)-5,6-dihydropyridine-1(2H)-carboxamide]	53 nM
O=C(c1cccs1)N1CC=C(c2c[nH]c3ncc(-c4ccc(CN5CCOCC5)s4)cc23)CC1 [Example 206, (4-(5-(5-(morpholinomethyl)thiophen-2-yl)-1H-pyrrolo[2,3-b]pyridin-3-yl)-5,6-dihydropyridin-1(2H)-yl)(thiophen-2-yl)methanone]	49 nM
NS(=O)(=O)c1ccc(-c2cnc3[nH]cc(C4=CCN(C(=O)c5cccs5)CC4)c3c2)cc1 [Example 197, 4-(3-(1-(thiophene-2-carbonyl)-1,2,3,6-tetrahydropyridin-4-yl)-1H-pyrrolo[2,3-b]pyridin-5-yl)benzensulfonamide]	28 nM
CNS(=O)(=O)c1cccc(-c2cnc3[nH]cc(C4=CCN(C(=O)OC5CCCC5)CC4)c3c2)c1 [Example 177, Cyclopentyl 4-(5-(3-(N-methylsulfamoyl)phenyl)-1H-pyrrolo[2,3-b]pyridin-3-yl)-5,6-dihydropyridine-1(2H)-carboxylate]	97 nM
O=C(c1cccs1)N1CC=C(c2c[nH]c3ncc(-c4ccc(F)c(F)c4)cc23)CC1 [Example 189, (4-(5-(3,4-Difluorophenyl)-1H-pyrrolo[2,3-b]pyridin-3-yl)-5,6-dihydropyridin-1(2H)-yl)(thiophen-2-yl)methanone]	> 10000 nM
CC(C)NC(=O)N1CC=C(c2c[nH]c3ncc(-c4ccc(CN5CCOCC5)s4)cc23)CC1 [Example 34, N-isopropyl-4-(5-(5-(morpholinomethyl)thiophen-2-yl)-1H-pyrrolo[2,3-b]pyridin-3-yl)-5,6-dihydropyridine-1(2H)-carboxamide]	0.73 nM
CCC(CC)OC(=O)N1CC=C(c2c[nH]c3ncccc23)CC1 [Example 142, Pentan-3-yl 4-(1H-pyrrolo[2,3-b]pyridin-3-yl)-5,6-dihydropyridine-1(2H)-carboxylate]	3000 nM
